From patent US8946296B2, “Substituted heteroaryl- and aryl-cyclopropylamine acetamides and their use” (Oryzon Genomics S.A., priority 2009, dated 2015)
Structures can show the parent of a compound that is named as a salt.

Assays:
[1] = molecular target: T1, MAO-B (Homo sapiens, UniProt P27338); test: Monoamine oxidase assay, MAO-B (kynuramine to 4-hydroxyquinoline fluorescence); type: biochemical; conditions: Ki (IC50) range class; human recombinant MAO-B, kynuramine substrate
T1 construct: purchased Sigma Aldrich
T1 sequence (P27338 1-520): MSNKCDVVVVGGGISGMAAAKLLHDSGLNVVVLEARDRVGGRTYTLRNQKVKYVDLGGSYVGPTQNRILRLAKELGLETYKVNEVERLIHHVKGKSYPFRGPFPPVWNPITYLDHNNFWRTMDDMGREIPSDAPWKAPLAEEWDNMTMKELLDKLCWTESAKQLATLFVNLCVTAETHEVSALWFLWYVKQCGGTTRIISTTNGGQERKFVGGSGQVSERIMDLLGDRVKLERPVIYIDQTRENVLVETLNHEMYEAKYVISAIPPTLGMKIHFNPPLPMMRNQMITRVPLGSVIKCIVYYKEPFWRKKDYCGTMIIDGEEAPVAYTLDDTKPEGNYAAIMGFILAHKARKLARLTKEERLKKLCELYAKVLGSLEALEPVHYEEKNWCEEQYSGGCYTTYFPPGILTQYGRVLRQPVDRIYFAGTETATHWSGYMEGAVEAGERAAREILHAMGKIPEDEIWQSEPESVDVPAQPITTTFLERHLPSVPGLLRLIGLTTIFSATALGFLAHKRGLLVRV
Text: (§1) Human recombinant monoamine oxidase proteins MAO-A and MAO-B were purchased from Sigma Aldrich. […] In order to monitor MAO enzymatic activities and/or their inhibition rate by inhibitor(s) of interest, a fluorescent-based (inhibitor)-screening assay was set up. 3-(2-Aminophenyl)-3-oxopropanamine (kynuramine dihydrobromide, Sigma Aldrich), a non fluorescent compound was chosen as a substrate. Kynuramine is a non-specific substrate for both MAOs activities. While undergoing oxidative deamination by MAO activities, kynuramine is converted into 4-hydroxyquinoline (4-HQ), a resulting fluorescent product.
(§2) The monoamine oxidase activity was estimated by measuring the conversion of kynuramine into 4-hydroxyquinoline. Assays were conducted in 96-well black plates with clear bottom (Corning) in a final volume of 100 μL. The assay buffer was 100 mM HEPES, pH 7.5. Each experiment was performed in triplicate within the same experiment.
(§3) The oxidative deamination of the substrate was stopped by adding 50 μL (v/v) of NaOH 2N.
(§4) The Ki of each inhibitor was measure at Vmax/2.

[2] = molecular target: T2, MAO-A (Homo sapiens, UniProt P21397); test: Monoamine oxidase assay, MAO-A (kynuramine to 4-hydroxyquinoline fluorescence); type: biochemical; conditions: Ki (IC50) range class; human recombinant MAO-A, kynuramine substrate
T2 construct: purchased Sigma Aldrich
T2 sequence (P21397 1-527): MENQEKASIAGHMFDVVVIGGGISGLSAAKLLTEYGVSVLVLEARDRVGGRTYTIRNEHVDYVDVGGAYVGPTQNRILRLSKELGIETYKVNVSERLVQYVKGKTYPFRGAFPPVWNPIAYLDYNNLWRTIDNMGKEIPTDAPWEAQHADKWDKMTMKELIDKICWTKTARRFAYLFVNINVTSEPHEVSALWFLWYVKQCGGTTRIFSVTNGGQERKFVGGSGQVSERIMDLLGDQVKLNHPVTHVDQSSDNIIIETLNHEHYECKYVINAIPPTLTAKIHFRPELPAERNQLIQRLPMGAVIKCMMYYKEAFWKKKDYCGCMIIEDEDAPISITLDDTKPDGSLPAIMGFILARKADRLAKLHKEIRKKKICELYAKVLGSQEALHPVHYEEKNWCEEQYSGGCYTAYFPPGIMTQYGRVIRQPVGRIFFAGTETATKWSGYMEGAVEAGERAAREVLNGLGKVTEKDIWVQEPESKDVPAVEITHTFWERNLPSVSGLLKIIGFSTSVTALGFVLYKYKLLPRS
Text: as §1, §2, §3, §4

[3] = molecular target: LSD1 (Homo sapiens, UniProt O60341); test: LSD1 inhibition assay (Amplex Red peroxide/peroxidase-coupled, di-methylated H3-K4 peptide substrate)

SMILES | Ki [1] [nM] | Ki [2] [nM] | Ki [3] [nM]
NC(=O)CN[C@@H]1C[C@H]1c1ccc(OCc2cccc(Br)c2)cc1 (relative stereo) [Example 8, 2-((trans)-2-(4-(3-bromobenzyloxy)phenyl)cyclopropylamino)acetamide] | 100 to 500 | 5000 to 40000 | 10 to 100
NC(=O)CN[C@H]1C[C@@H]1c1ccc(-c2ccc(-c3ccccc3)cc2)cc1 (stereo in doubt) [Example 12, 2-(2-[1,1′;4′,1″]Terphenyl-4″-yl-cyclopropylamino)acetamide] | 100 to 500 | > 40000 | 100 to 500
N#Cc1ccc(COc2ccc([C@@H]3C[C@H]3NCC(N)=O)cc2)cc1 (relative stereo) [Example 1, 2-((trans)-2-(4-(4-cyanobenzyloxy)phenyl)cyclopropylamino)acetamide hydrochloride] | 100 to 500 | 5000 to 40000 | 10 to 100
NC(=O)CN[C@@H]1C[C@H]1c1ccc(OCCc2ccccc2)cc1 (relative stereo) [Example 10, 2-((trans)-2-(4-phenethoxyphenyl)cyclopropylamino)acetamide] | 100 to 500 | 5000 to 40000 | 10 to 100
NC(=O)CN[C@@H]1C[C@H]1c1ccc(OCc2cccc(Cl)c2)cc1 (relative stereo) [Example 6, 2-((trans)-2-(4-(3-chlorobenzyloxy)phenyl)cyclopropylamino)acetamide hydrochloride] | 100 to 500 | > 40000 | 10 to 100
NC(=O)CN[C@@H]1C[C@H]1c1ccc(OCc2cc(F)cc(F)c2)cc1 (relative stereo) [Example 9, 2((trans)-2-(4-(3,5-difluorobenzyloxy)phenyl)cyclopropylamino)acetamide] | 100 to 500 | 5000 to 40000 | 10 to 100
NC(=O)CN[C@@H]1C[C@H]1c1ccc(OCc2ccc(F)cc2)cc1 (relative stereo) [Example 4, 2-((trans)-2-(4-(4-fluorobenzyloxy)phenyl)cyclopropylamino)acetamide hydrochloride] | 100 to 500 | > 40000 | 100 to 500
NC(=O)CN[C@@H]1C[C@H]1c1ccc(OCc2cccc(F)c2)cc1 (relative stereo) [Example 5, 2-((trans)-2-(4-(3-fluorobenzyloxy)phenyl)cyclopropylamino)acetamide hydrochloride] | 100 to 500 | 5000 to 40000 | 10 to 100

Second part, the molecule after the results:

Ki [1] [nM] | Ki [2] [nM] | Ki [3] [nM] | SMILES
100 to 500 | > 40000 | 100 to 500 | NC(=O)CN[C@@H]1C[C@H]1c1ccc(OCc2ccc(Cl)cc2)cc1 (relative stereo) [Example 7, 2-((trans)-2-(4-(4-chlorobenzyloxy)phenyl)cyclopropylamino)acetamide hydrochloride]
100 to 500 | 5000 to 40000 | 100 to 500 | NC(=O)CN[C@@H]1C[C@H]1c1ccc(OCc2ccccc2)cc1 (relative stereo) [Example 3, 2-((trans)-2-(4-(benzyloxy)phenyl)cyclopropylamino)acetamide]
500 to 5000 | 500 to 5000 | 10 to 100 | NC(=O)CN[C@@H]1C[C@H]1c1ccc(-c2ccc(Cl)cc2)nc1 (relative stereo) [Example 20, 2-((trans)-2-(6-(4-chlorophenyl)pyridin-3-yl)cyclopropylamino)acetamide]
100 to 500 | 5000 to 40000 | 100 to 500 | NC(=O)CN[C@@H]1C[C@H]1c1ccc(-c2cccc(C(F)(F)F)c2)cc1 (relative stereo) [Example 11, 2-((trans)-2-(3′-(trifluoromethyl)biphenyl-4-yl)cyclopropylamino)acetamide]
100 to 500 | 500 to 5000 | 10 to 100 | N#Cc1cccc(COc2ccc([C@@H]3C[C@H]3NCC(N)=O)cc2)c1 (relative stereo) [Example 2, 2-((trans)-2-(4-(3-cyanobenzyloxy)phenyl)cyclopropylamino)acetamide hydrochloride]
